In PMC7614683, “A small molecule PI3Kα activator for cardioprotection and neuroregeneration” (Nature, 2023):

Tested on: PI3Kα-WT MEFs
Assay: Mass spectrometry-based phosphoproteomics, PI3Kα-WT MEFs
Type: cell-based, mouse
Conditions: for number of differentially phosphorylated peptides/sites relative to DMSO: 1938 5 μM or insulin 100 nM
Experimental: PI3Kα-WT and PI3Kα-KO MEFs, grown in 15 cm dishes, were serum-starved overnight in DMEM with 1% penicillin-streptomycin and stimulated by the addition of 0.05% DMSO, 5 μM 1938 in final 0.05% DMSO or 100 nM insulin (Sigma #I5016) for 15 min or 4 h. Cells were lysed in 500 μl urea lysis buffer [50 mM triethylammonium bicarbonate, 8 M urea, cOmplete™ EDTA-free protease inhibitor cocktail (1:50 dilution) (Roche #11873580001), 1 PhosSTOP tablet (Roche #4906845001) per 10 ml of lysis buffer, 1 mM sodium orthovanadate] and lysates sonicated until clear for ~10 min with cooling breaks on ice. Protein concentration was measured using a BCA protein assay (Pierce #23227). 300 μg of protein was reduced with 5 mM Tris(2-carboxyethyl)phosphine hydrochloride (Sigma #C4706) at 37°C for 20 min and alkylated using 10 mM 2-chloroacetamide (Sigma #22790) for 20 min at room temperature in the dark. Proteins were digested with LysC (#129-02541; FUJIFILM Wako Chemicals, Osaka, Japan) for 3.5 h at 30°C. Samples were then diluted with 50 mM triethylammonium bicarbonate (Sigma #T7408) to reduce the urea concentration to 1.5 M, followed by an overnight peptide digestion with trypsin (Promega #V5113) at 37°C. Digest reactions were quenched by the addition of 10% trifluoroacetic acid (EMD Millipore #302031-M) to a final pH of 2.0. Sample desalting was performed using 35-350 μg C18 columns (HMM S18V; The Nest Group, Inc., Southborough, MA, USA) according to the manufacturer’ specifications. TiO2 (Hichrome Titansphere TiO2, 10 μm capacity, 100 mg, GL Sciences #5020-75010) was used for phosphoenrichment. Following peptide loading onto TiO2, the beads were sequentially washed with 1 M glycolic acid (Sigma #124737)/80% acetonitrile/5% trifluoroacetic acid, followed by 80% acetonitrile/0.2% trifluoroacetic acid and 20% acetonitrile before elution with 5% ammonium hydroxide. Enriched samples were desalted using 7-70 μg C18 columns (HUM S18V; The Nest Group, Inc., Southborough, MA, USA) according to the manufacturer’s specifications. Dried phosphopeptide samples were stored at -80°C and resuspended in 10% formic acid immediately prior to analysis. nLC-MS/MS was performed on a Q-Exactive Orbitrap Plus interfaced to a NANOSPRAY FLEX ion source and coupled to an Easy-nLC 1000 (Thermo Scientific). Fifty percent of each sample was analysed as 10 μl injections. Peptides were separated on a 27 cm fused silica emitter, 75 μm diameter, packed in-house with Reprosil-Pur 200 C18-AQ, 2.4 μm resin (Dr. Maisch, Ammerbuch-Entringen, Germany) using a linear gradient from 5% to 30% acetonitrile/0.1% formic acid over 180 min, at a flow rate of 250 nl/min. Peptides were ionised by electrospray ionisation using 1.9 kV applied immediately prior to the analytical column via a microtee built into the nanospray source with the ion transfer tube heated to 320°C and the S-lens set to 60%. Precursor ions were measured in a data-dependent mode in the orbitrap analyser at a resolution of 70,000 and a target value of 3e6 ions. The ten most intense ions from each MS1 scan were isolated, fragmented in the HCD cell, and measured in the Orbitrap at a resolution of 17,500.
Raw data were analysed with MaxQuant[72] (version 1.5.5.1) where they were searched against the mouse UniProt database (http://www.uniprot.org/, downloaded 04/12/2018) using default settings. Carbamidomethylation of cysteines was set as fixed modification, and oxidation of methionines, acetylation at protein N-termini, phosphorylation (on S, T or Y) were set as variable modifications. Enzyme specificity was set to trypsin with maximally 2 missed cleavages allowed. To ensure high confidence identifications, peptide-spectral matches, peptides, and proteins were filtered at a less than 1% false discovery rate (FDR). Label-free quantification in MaxQuant was used with a LFQ minimum ratio count of 2, Fast LFQ selected and the ‘skip normalisation’ option selected. […]

Compound	number of differentially phosphorylated peptides/sites relative to DMSO (15 min)	number of differentially phosphorylated peptides/sites relative to DMSO (4h)	log2FC, PI3Ka WT 4 h 1938 vs PI3Ka WT DMSO (phosphosite Cask_S544)	log2FC, PI3Ka WT 15’ 1938 vs PI3Ka WT DMSO (phosphosite Cask_S545)	log2FC, PI3Ka WT 4 h 1938 vs PI3Ka WT DMSO (phosphosite Cask_S545)	log2FC, PI3Ka WT 15’ 1938 vs PI3Ka WT DMSO (phosphosite Gm42715_S1683)	log2FC, PI3Ka WT 4 h 1938 vs PI3Ka WT DMSO (phosphosite Gm42715_S1683)	log2FC, PI3Ka WT 15’ Insulin vs PI3Ka WT DMSO (phosphosite Cask_S545)	log2FC, PI3Ka WT 4 h Insulin vs PI3Ka WT DMSO (phosphosite Cask_S545)	log2FC, PI3Ka WT 15’ Insulin vs PI3Ka WT DMSO (phosphosite Gm42715_S1683)	log2FC, PI3Ka WT 4 h Insulin vs PI3Ka WT DMSO (phosphosite Gm42715_S1683)
CCN1CCN(c2ccc(Nc3cc(Nc4cccc5c4N(C(C)=O)CC5)ccn3)cc2)CC1 [Compound 1938]	27	50	Inf	-0.1674	-0.01008	1.032	0.9181	–	–	–	–
insulin: insulin, canonical activator of PI3Kα, used as positive control	11	18	–	–	–	–	–	-0.06497	-0.07238	0.5546	1.083
